Reference: patent US20260092061A1, “COMPOUNDS FOR TARGETED PROTEIN DEGRADATION” (Amphista Therapeutics Limited, priority 2022, published 2026)

Target: T1, BRD9 (Homo sapiens, UniProt Q9H8M2)
T1 sequence (Q9H8M2 1-597): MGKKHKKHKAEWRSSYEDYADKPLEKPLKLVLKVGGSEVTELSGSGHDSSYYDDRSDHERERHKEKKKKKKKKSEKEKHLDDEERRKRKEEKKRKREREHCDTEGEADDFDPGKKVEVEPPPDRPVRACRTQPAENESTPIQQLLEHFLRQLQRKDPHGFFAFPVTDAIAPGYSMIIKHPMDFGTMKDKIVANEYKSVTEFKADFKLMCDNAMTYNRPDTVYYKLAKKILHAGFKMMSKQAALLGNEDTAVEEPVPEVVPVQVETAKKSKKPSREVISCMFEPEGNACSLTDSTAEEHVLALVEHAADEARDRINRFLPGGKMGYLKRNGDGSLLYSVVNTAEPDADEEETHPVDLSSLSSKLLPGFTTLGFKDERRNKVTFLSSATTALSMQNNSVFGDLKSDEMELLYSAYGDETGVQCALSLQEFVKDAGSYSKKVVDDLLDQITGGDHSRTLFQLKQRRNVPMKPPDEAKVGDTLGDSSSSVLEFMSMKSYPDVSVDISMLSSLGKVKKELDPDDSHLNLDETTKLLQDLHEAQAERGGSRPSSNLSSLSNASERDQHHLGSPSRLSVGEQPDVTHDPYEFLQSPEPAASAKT
Test: Degradation of BRD9 (IF), immunofluorescence in MV4-11 cells, 24 hours (Assay Protocol 2)
Type: cell-based
Parameters: A suspension of MV4-11 cells (ATCC CRL-9591) was prepared; host or cells: MV4-11
Conditions: BRD9 degradation; for DC50: Assay protocol 2, read-out: DC50; for Dmax: MV4-11, Assay protocol 2, read-out: Dmax
How it was run: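 % BRD9 remaining, scaled between DMSO (high) and 100 nM CFT-8634 (low) control wells, derives from mean Alexa 647 contrast in central nuclei by high-content imaging. MV4-11 cells had 24 h compound exposure at 37° C. before PFA fixation, Triton permeabilisation and anti-BRD9 E4Q3F immunostaining.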

DC50 [nM] | Dmax [%] | Compound
25 to 1000 | 40 to 70 | COc1cc(-c2cn(C)c(=O)c(C)c2C)cc(OC)c1CN1CCCN(c2ccc3c(c2)[C@H](C)N(C(=O)/C(C#N)=C/C(C)(C)CF)CC3)CC1 (mixture of isomers) [Compound C68, (E/Z)-2-(7-(4-(2,6-dimethoxy-4-(1,4,5-trimethyl-6-oxo-1,6-dihydropyridin-3-yl)benzyl)-1,4-diazepan-1-yl)-1-methyl-1,2,3,4-tetrahydroisoquinoline-2-carbonyl)-5-fluoro-4,4-dimethylpent-2-enenitrile]
10 to 25 | 40 to 70 | COc1cc(-c2cn(C)c(=O)c(C)c2C)cc(OC)c1CN1CCCN(c2ccc3c(c2)[C@@H](C)N(C(=O)/C(C#N)=C/C(C)(C)CF)CC3)CC1 (mixture of isomers) [Compound C69, (E/Z)-2-(7-(4-(2,6-dimethoxy-4-(1,4,5-trimethyl-6-oxo-1,6-dihydropyridin-3-yl)benzyl)-1,4-diazepan-1-yl)-1-methyl-1,2,3,4-tetrahydroisoquinoline-2-carbonyl)-5-fluoro-4,4-dimethylpent-2-enenitrile]
25 to 1000 | > 75 | COc1cc(-c2cn(C)c(=O)c(C)c2C)ccc1OC1CCN(Cc2cccc3c2CCN(C(=O)/C(C#N)=C/C(C)(C)C)C3C)C2(CC2)C1 (mixture of isomers) [Compound C72, (E/Z)-2-(5-((7-(2-methoxy-4-(1,4,5-trimethyl-6-oxo-1,6-dihydropyridin-3-yl)phenoxy)-4-azaspiro[2.5]octan-4-yl)methyl)-1-methyl-1,2,3,4-tetrahydroisoquinoline-2-carbonyl)-4,4-dimethylpent-2-enenitrile]
25 to 1000 | > 75 | COc1cc(-c2cn(C)c(=O)c(C)c2C)ccc1CC1CCN(Cc2cccc3c2CCN(C(=O)/C(C#N)=C/C(C)(C)C)C3C)C(C)(C)C1 (mixture of isomers) [Compound C74]
25 to 1000 | > 75 | COc1cc(-c2cn(C)c(=O)c(C)c2C)cc(OC)c1CN1CCN(S(=O)(=O)c2cccc3c2CCN(C(=O)/C(C#N)=C\C(C)(C)C)C3C)CC1 (mixture of isomers) [Compound C75, (E/Z)-2-(5-((4-(2,6-dimethoxy-4-(1,4,5-trimethyl-6-oxo-1,6-dihydropyridin-3-yl)benzyl)piperazin-1-yl)sulfonyl)-1-methyl-1,2,3,4-tetrahydroisoquinoline-2-carbonyl)-4,4-dimethylpent-2-enenitrile]
1.25 to 10 | 70 to 75 | COc1cc(-c2cn(C)c(=O)c(C)c2C)cc(OC)c1CN1CCC(Cc2cccc3c2CCN(C(=O)/C(C#N)=C/C(C)(C)CF)C3C(C)C)CC1 (mixture of isomers) [Compound C80]
1.25 to 10 | > 75 | COc1cc(-c2cn(C)c(=O)c(C)c2C)cc(OC)c1CN1CCCN(Cc2cccc3c2CCN(C(=O)/C(C#N)=C/C(C)(C)CF)[C@@H]3C(C)C)CC1 (mixture of isomers) [Compound C84, (E/Z)-2-(5-((4-(2,6-dimethoxy-4-(1,4,5-trimethyl-6-oxo-1,6-dihydropyridin-3-yl)benzyl)-1,4-diazepan-1-yl)methyl)-1-isopropyl-1,2,3,4-tetrahydroisoquinoline-2-carbonyl)-5-fluoro-4-dimethylpent-2-enenitrile]
10 to 25 | 40 to 70 | COc1cc(-c2cn(C)c(=O)c(C)c2C)cc(OC)c1CN(C)Cc1cccc2c1CCN(C(=O)/C(C#N)=C/C(C)(C)C)C2C(C)C (mixture of isomers) [Compound C95, (E/Z)-2-(5-(((2,6-dimethoxy-4-(1,4,5-trimethyl-6-oxo-1,6-dihydropyridin-3-yl)benzyl)(methyl)amino)methyl)-1-isopropyl-1,2,3,4-tetrahydroisoquinoline-2-carbonyl)-4,4-dimethylpent-2-enenitrile]
10 to 25 | > 75 | COc1cc(-c2cn(C)c(=O)c(C)c2C)cc(OC)c1CN1C[C@H](C)N(Cc2cccc3c2CCN(C(=O)/C(C#N)=C/C(C)(C)CF)C3C(C)C)C[C@H]1C (mixture of isomers) [Compound C98, (E/Z)-2-(5-(((2S,5R)-4-(2,6-dimethoxy-4-(1,4,5-trimethyl-6-oxo-1,6-dihydropyridin-3-yl)benzyl)-2,5-dimethylpiperazin-1-yl)methyl)-1-isopropyl-1,2,3,4-tetrahydroisoquinoline-2-carbonyl)-5-fluoro-4,4-dimethylpent-2-enenitrile]
< 1.25 | > 75 | COc1cc(-c2cn(C)c(=O)c(C)c2C)cc(OC)c1CN1CCN(Cc2ccc3c(c2)C(C)N(C(=O)/C(C#N)=C/C(C)(C)C)CC3)C2(CC2)C1 (mixture of isomers) [Compound C106, (E/Z)-2-(7-((7-(2,6-dimethoxy-4-(1,4,5-trimethyl-6-oxo-1,6-dihydropyridin-3-yl)benzyl)-4,7-diazaspiro[2.5]octan-4-yl)methyl)-1-methyl-1,2,3,4-tetrahydroisoquinoline-2-carbonyl)-4,4-dimethylpent-2-enenitrile]
< 1.25 | > 75 | COc1cc(-c2cn(C)c(=O)c(C)c2C)cc(OC)c1CN1CCN(Cc2cccc3c2CCN(C(=O)/C(C#N)=C/C(C)(C)C)[C@H]3C)C2(CC2)C1 (single isomer, unassigned) [Compound B146, (E/Z)-2-(5-((7-(2,6-dimethoxy-4-(1,4,5-trimethyl-6-oxo-1,6-dihydropyridin-3-yl)benzyl)-4,7-diazaspiro[2.5]octan-4-yl)methyl)-1-methyl-1,2,3,4-tetrahydroisoquinoline-2-carbonyl)-4,4-dimethylpent-2-enenitrile]
1.25 to 10 | > 75 | COc1cc(-c2cn(C)c(=O)c(C)c2C)cc(OC)c1CN1CCCN(Cc2cccc3c2CCN(C(=O)/C(C#N)=C/C(C)(C)C)[C@@H]3C)CC1 (single isomer, unassigned) [Compound B192, (E/Z)-2-(5-((4-(2,6-dimethoxy-4-(1,4,5-trimethyl-6-oxo-1,6-dihydropyridin-3-yl)benzyl)-1,4-diazepan-1-yl)methyl)-1-methyl-1,2,3,4-tetrahydroisoquinoline-2-carbonyl)-4,4-dimethylpent-2-enenitrile]
< 1.25 | > 75 | COc1cc(-c2cn(C)c(=O)c(C)c2C)cc(OC)c1CN1CCN(Cc2cccc3c2CCN(C(=O)/C(C#N)=C/C2(C)CCOCC2)[C@@H]3C)C2(CC2)C1 (single isomer, unassigned) [Compound B193, (E/Z)-2-(5-((7-(2,6-dimethoxy-4-(1,4,5-trimethyl-6-oxo-1,6-dihydropyridin-3-yl)benzyl)-4,7-diazaspiro[2.5]octan-4-yl)methyl)-1-methyl-1,2,3,4-tetrahydroisoquinoline-2-carbonyl)-3-(4-methyltetrahydro-2H-pyran-4-yl)acrylonitrile]
1.25 to 10 | 40 to 70 | COc1cc(-c2cn(C)c(=O)c(C)c2C)cc(OC)c1CN1CCN(Cc2cccc3c2CCN(C(=O)/C(C#N)=C/C2(C)CCOCC2)[C@H]3C)C2(CC2)C1 (single isomer, unassigned) [Compound B194, (E/Z)-2-(5-((7-(2,6-dimethoxy-4-(1,4,5-trimethyl-6-oxo-1,6-dihydropyridin-3-yl)benzyl)-4,7-diazaspiro[2.5]octan-4-yl)methyl)-1-methyl-1,2,3,4-tetrahydroisoquinoline-2-carbonyl)-3-(4-methyltetrahydro-2H-pyran-4-yl)acrylonitrile]
< 1.25 | > 75 | COc1cc(-c2cn(C)c(=O)c(C)c2C)cc(OC)c1CN1CCN(Cc2cccc3c2CCN(C(=O)/C(C#N)=C/C(C)(C)CF)C3C)C2(CC2)C1 (single isomer, unassigned) [Compound B195, (E/Z)-2-(5-((7-(2,6-dimethoxy-4-(1,4,5-trimethyl-6-oxo-1,6-dihydropyridin-3-yl)benzyl)-4,7-diazaspiro[2.5]octan-4-yl)methyl)-1-methyl-1,2,3,4-tetrahydroisoquinoline-2-carbonyl)-5-fluoro-4,4-dimethylpent-2-enenitrile]
1.25 to 10 | 70 to 75 | COc1cc(-c2cn(C)c(=O)c(C)c2C)cc(OC)c1CN1CCN(Cc2cccc3c2CCN(C(=O)/C(C#N)=C/C(C)(C)CF)[C@@H]3C)C2(CC2)C1 (single isomer, unassigned) [Compound B196, (E/Z)-2-(5-((7-(2,6-dimethoxy-4-(1,4,5-trimethyl-6-oxo-1,6-dihydropyridin-3-yl)benzyl)-4,7-diazaspiro[2.5]octan-4-yl)methyl)-1-methyl-1,2,3,4-tetrahydroisoquinoline-2-carbonyl)-5-fluoro-4,4-dimethylpent-2-enenitrile]
25 to 1000 | 40 to 70 | COc1cc(-c2cn(C)c(=O)c(C)c2C)cc(OC)c1CN1CCN(Cc2cccc3c2CCN(C(=O)/C(C#N)=C/C(C)(C)C)[C@H]3C)[C@@H](C)C1 (single isomer, unassigned) [Compound B197]
1.25 to 10 | > 75 | COc1cc(-c2cn(C)c(=O)c(C)c2C)cc(OC)c1CN1CCN(Cc2cccc3c2CCN(C(=O)/C(C#N)=C/C(C)(C)C)[C@@H]3C)[C@@H](C)C1 (single isomer, unassigned) [Compound B198]
